Target: human Nav 1.8 (Homo sapiens, UniProt Q9Y5Y9)
Assay: E-VIPR assay detecting and measuring Nav inhibition properties
Assay type: cell-based
Details: HEK cells expressing a truncated form of human Nav 1.8; compound numbers without "*" (not marked as run in the presence of human serum); read-out: measured IC50 value in the E-VIPR Assay
Procedure, shortened: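 Nav inhibition was read by E-VIPR: cells were electrically stimulated while coumarin/oxonol FRET emissions were recorded. Cells were HEK expressing a truncated human Nav 1.8 and co-transduced with KIR2.1, and were assayed in 25% final human serum.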

Chain of human Nav 1.8 (Q9Y5Y9 126-399 limits assumed): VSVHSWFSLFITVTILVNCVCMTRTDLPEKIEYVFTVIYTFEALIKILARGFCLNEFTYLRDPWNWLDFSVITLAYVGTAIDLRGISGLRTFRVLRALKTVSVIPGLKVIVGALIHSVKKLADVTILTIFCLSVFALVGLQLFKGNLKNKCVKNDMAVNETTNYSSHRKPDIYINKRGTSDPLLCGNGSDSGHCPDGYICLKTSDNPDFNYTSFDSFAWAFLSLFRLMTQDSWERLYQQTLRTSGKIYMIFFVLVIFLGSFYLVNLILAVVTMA
Chain of human Nav 1.8 (Q9Y5Y9 660-890 limits assumed): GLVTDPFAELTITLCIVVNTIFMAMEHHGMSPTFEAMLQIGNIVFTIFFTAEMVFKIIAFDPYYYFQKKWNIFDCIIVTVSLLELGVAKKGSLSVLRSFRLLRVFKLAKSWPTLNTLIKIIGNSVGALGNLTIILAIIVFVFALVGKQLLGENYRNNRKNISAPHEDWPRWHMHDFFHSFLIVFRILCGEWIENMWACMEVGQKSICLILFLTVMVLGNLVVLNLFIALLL
Chain of human Nav 1.8 (Q9Y5Y9 1148-1722 limits assumed): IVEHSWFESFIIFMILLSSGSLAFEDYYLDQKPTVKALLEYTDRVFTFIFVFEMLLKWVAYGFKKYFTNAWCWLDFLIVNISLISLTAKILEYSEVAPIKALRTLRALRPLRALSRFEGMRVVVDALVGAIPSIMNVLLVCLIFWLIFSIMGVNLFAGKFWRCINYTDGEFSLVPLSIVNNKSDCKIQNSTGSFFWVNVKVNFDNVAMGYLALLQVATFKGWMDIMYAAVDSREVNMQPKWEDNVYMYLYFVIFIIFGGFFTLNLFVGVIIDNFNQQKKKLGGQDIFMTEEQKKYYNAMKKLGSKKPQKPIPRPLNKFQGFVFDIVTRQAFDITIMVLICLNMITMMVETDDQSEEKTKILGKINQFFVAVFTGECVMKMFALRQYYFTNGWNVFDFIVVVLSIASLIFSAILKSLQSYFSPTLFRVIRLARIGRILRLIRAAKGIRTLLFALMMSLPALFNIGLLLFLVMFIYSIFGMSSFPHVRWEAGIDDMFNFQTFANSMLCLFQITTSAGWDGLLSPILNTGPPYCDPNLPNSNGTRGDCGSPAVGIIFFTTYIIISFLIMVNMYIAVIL

**Q.** For `C[C@H]1[C@@H](c2ccc(F)c(F)c2OCC(=NO)C2(F)CC2)[C@H](C(=O)Nc2ccnc(C(N)=O)c2)O[C@@]1(C)C(F)(F)F` [Compound 190, 4-((2R,3S,4S,5R)-3-(3,4-difluoro-2-(2-(1-fluorocyclopropyl)-2-(hydroxyimino)ethoxy)phenyl)-4,5-dimethyl-5-(trifluoromethyl)tetrahydrofuran-2-carboxamido)picolinamide], which IC50 is on record?
**A.** Its IC50 is < 0.01 µM.

**Q.** Which IC50 does the source give for `C[C@H]1[C@@H](c2ccc(F)c(F)c2OCC(=NO)C2CCC2)[C@H](C(=O)Nc2ccnc(C(N)=O)c2)O[C@@]1(C)C(F)(F)F` [Compound 191, 4-((2R,3S,4S,5R)-3-(2-(2-cyclobutyl-2-(hydroxyimino)ethoxy)-3,4-difluorophenyl)-4,5-dimethyl-5-(trifluoromethyl)tetrahydrofuran-2-carboxamido)picolinamide] here?
**A.** Its IC50 is < 0.01 µM.

**Q.** With `C[C@H]1[C@@H](c2ccc(F)c(F)c2OC2CC(=NO)C2)[C@H](C(=O)Nc2ccnc(C(N)=O)c2)O[C@@]1(C)C(F)(F)F` (stereo partly drawn) [Compound 192, 4-((2R,3S,4S,5R)-3-(3,4-difluoro-2-(3-(hydroxyimino)cyclobutoxy)phenyl)-4,5-dimethyl-5-(trifluoromethyl)tetrahydrofuran-2-carboxamido)picolinamide] as the molecule, how does the IC50 read?
**A.** The IC50 was < 0.01 µM.

**Q.** Which IC50 does the source give for `CON=C(C)COc1c([C@H]2[C@H](C(=O)Nc3ccnc(C(N)=O)c3)O[C@@](C)(C(F)(F)F)[C@H]2C)ccc(F)c1F` [Compound 193, 4-((2R,3S,4S,5R)-3-(3,4-difluoro-2-(2-(methoxyimino)propoxy)phenyl)-4,5-dimethyl-5-(trifluoromethyl)tetrahydrofuran-2-carboxamido)picolinamide] here?
**A.** The IC50 was < 0.01 µM.

**Q.** For `CC(COc1c([C@H]2[C@H](C(=O)Nc3ccnc(C(N)=O)c3)O[C@@](C)(C(F)(F)F)[C@H]2C)cccc1C(F)(F)F)=NO` [Compound 196, 4-((2R,3S,4S,5R)-3-(2-(2-(hydroxyimino)propoxy)-3-(trifluoromethyl)phenyl)-4,5-dimethyl-5-(trifluoromethyl)tetrahydrofuran-2-carboxamido)picolinamide], which IC50 is on record?
**A.** The IC50 was < 0.01 µM.

**Q.** Which IC50 does the source give for `CC1C(c2ccc(F)c(F)c2OCC2CC(C)(O)C2)C(C(=O)Nc2ccnc(C(N)=O)c2)OC1(C)C(F)(F)F` [Compound 199, rel-4-((2R*,3S*,4S*,5R*)-3-(3,4-difluoro-2-(((1r,3S)-3-hydroxy-3-methylcyclobutyl)methoxy)phenyl)-4,5-dimethyl-5-(trifluoromethyl)tetrahydrofuran-2-carboxamido)picolinamide] here?
**A.** Its IC50 is 0.01 to 0.1 µM.

**Q.** For `CNC(=O)c1cc(NC(=O)[C@@H]2O[C@@](C)(C(F)(F)F)[C@@H](C)[C@H]2c2ccc(F)c(F)c2O[C@H]2C[C@@H](O)C2)ccn1` [Compound 201], which IC50 is on record?
**A.** Its IC50 is 0.01 to 0.1 µM.

**Q.** How did the IC50 turn out when `C[C@H]1[C@@H](c2ccc(F)c(F)c2O[C@H]2C[C@@H](O)C2)[C@H](C(=O)Nc2ccc(F)c(C(N)=O)c2)O[C@@]1(C)C(F)(F)F` [Compound 202] was run?
**A.** Its IC50 is < 0.01 µM.

**Q.** Which IC50 does the source give for `Cc1cnc(C(N)=O)cc1NC(=O)C1OC(C)(C(F)(F)F)C(C)C1c1ccc(F)c(F)c1OC1CC(O)C1` (centres unmarked) [Compound 203] here?
**A.** Its IC50 is 0.01 to 0.1 µM.

**Q.** How did the IC50 turn out when `C[C@H]1[C@@H](c2ccc(F)c(F)c2OC2CC3(CC(O)C3)C2)[C@H](C(=O)Nc2ccnc(C(N)=O)c2)O[C@@]1(C)C(F)(F)F` (stereo partly drawn) [Compound 204, 4-((2R,3S,4S,5R)-3-(3,4-difluoro-2-((6-hydroxyspiro[3.3]heptan-2-yl)oxy)phenyl)-4,5-dimethyl-5-(trifluoromethyl)tetrahydrofuran-2-carboxamido)picolinamide] was run?
**A.** The IC50 was 0.1 to 1 µM.

**Q.** Which IC50 does the source give for `COc1c([C@H]2[C@H](C(=O)Nc3ccnc(C(N)=O)c3)O[C@@](C)(C(F)(F)F)[C@H]2C)ccc(O)c1F` [Compound 206, 4-((2R,3S,4S,5R)-3-(3-fluoro-4-hydroxy-2-methoxyphenyl)-4,5-dimethyl-5-(trifluoromethyl)tetrahydrofuran-2-carboxamido) picolinamide] here?
**A.** Its IC50 is 0.01 to 0.1 µM.

**Q.** `COc1c([C@H]2[C@H](C(=O)Nc3ccnc(C(N)=O)c3)O[C@@](C)(C(F)(F)F)[C@H]2C)ccc(OC2CC(F)(F)C2)c1F` [Compound 207, 4-((2R,3S,4S,5R)-3-(4-(3,3-difluorocyclobutoxy)-3-fluoro-2-methoxyphenyl)-4,5-dimethyl-5-(trifluoromethyl)tetrahydrofuran-2-carboxamido) picolinamide] was tested. Which IC50 did it give?
**A.** Its IC50 is < 0.01 µM.

**Q.** Which IC50 does the source give for `C[C@H]1[C@@H](c2ccc(C(F)F)nc2OCCO)[C@H](C(=O)Nc2ccnc(C(N)=O)c2)O[C@@]1(C)C(F)(F)F` [Compound 208, 4-((2R,3S,4S,5R)-3-(6-(difluoromethyl)-2-(2-hydroxyethoxy)pyridin-3-yl)-4,5-dimethyl-5-(trifluoromethyl)tetrahydrofuran-2-carboxamido) picolinamide] here?
**A.** Its IC50 is 0.1 to 1 µM.

**Q.** How did the IC50 turn out when `C[C@H]1[C@@H](c2ccc(F)c(F)c2COC2COC2)[C@H](C(=O)Nc2ccnc(C(N)=O)c2)O[C@@]1(C)C(F)(F)F` [Compound 211, 4-((2R,3S,4S,5R)-3-(3,4-difluoro-2-((oxetan-3-yloxy)methyl)phenyl)-4,5-dimethyl-5-(trifluoromethyl)tetrahydrofuran-2-carboxamido) picolinamide] was run?
**A.** The IC50 was < 0.01 µM.

**Q.** `C[C@H]1[C@@H](c2cccc(C(F)(F)F)c2O[C@H]2C[C@@H](O)C2)[C@H](C(=O)Nc2ccnc(C(N)=O)c2)O[C@@]1(C)C(F)(F)F` [Compound 212, 4-((2R,3S,4S,5R)-3-(2-((1s,3R)-3-hydroxycyclobutoxy)-3-(trifluoromethyl)phenyl)-4,5-dimethyl-5-(trifluoromethyl)tetrahydrofuran-2-carboxamido) picolinamide] was tested. Which IC50 did it give?
**A.** Its IC50 is < 0.01 µM.

**Q.** For `C[C@H]1[C@@H](c2cccc(Cl)c2O[C@H]2C[C@@H](O)C2)[C@H](C(=O)Nc2ccnc(C(N)=O)c2)O[C@@]1(C)C(F)(F)F` [Compound 213, 4-((2R,3S,4S,5R)-3-(3-chloro-2-((1s,3R)-3-hydroxycyclobutoxy)phenyl)-4,5-dimethyl-5-(trifluoromethyl)tetrahydrofuran-2-carboxamido) picolinamide], which IC50 is on record?
**A.** The IC50 was < 0.01 µM.

**Q.** How did the IC50 turn out when `COc1c([C@H]2[C@H](C(=O)Nc3ccnc(C(=O)O)c3)O[C@@](C)(C(F)(F)F)[C@H]2C)ccc(F)c1F` [Compound 214, 4-((2R,3S,4S,5R)-3-(3,4-difluoro-2-methoxyphenyl)-4,5-dimethyl-5-(trifluoromethyl)tetrahydrofuran-2-carboxamido)picolinic acid] was run?
**A.** Its IC50 is 0.01 to 0.1 µM.

**Q.** How did the IC50 turn out when `COc1c([C@H]2[C@H](C(=O)Nc3ccnc(C(=O)N4CC5(CCN5)C4)c3)O[C@@](C)(C(F)(F)F)[C@H]2C)ccc(F)c1F` [Compound 215, (2R,3S,4S,5R)—N-(2-(1,6-diazaspiro[3.3]heptane-6-carbonyl)pyridin-4-yl)-3-(3,4-difluoro-2-methoxyphenyl)-4,5-dimethyl-5-(trifluoromethyl)tetrahydrofuran-2-carboxamide] was run?
**A.** Its IC50 is < 0.01 µM.

**Q.** `COc1c([C@H]2[C@H](C(=O)Nc3ccnc(C(=O)N4CC5(CCN5C)C4)c3)O[C@@](C)(C(F)(F)F)[C@H]2C)ccc(F)c1F` [Compound 216, (2R,3S,4S,5R)-3-(3,4-difluoro-2-methoxyphenyl)-4,5-dimethyl-N-(2-(1-methyl-1,6-diazaspiro[3.3]heptane-6-carbonyl)pyridin-4-yl)-5-(trifluoromethyl)tetrahydrofuran-2-carboxamide] was tested. Which IC50 did it give?
**A.** The IC50 was < 0.01 µM.

**Q.** `COc1c([C@H]2[C@H](C(=O)Nc3ccnc(C(=O)N(C)O)c3)O[C@@](C)(C(F)(F)F)[C@H]2C)ccc(F)c1F` [Compound 217, 4-((2R,3S,4S,5R)-3-(3,4-difluoro-2-methoxyphenyl)-4,5-dimethyl-5-(trifluoromethyl)tetrahydrofuran-2-carboxamido)-N-hydroxy-N-methylpicolinamide] was tested. Which IC50 did it give?
**A.** Its IC50 is < 0.01 µM.

**Q.** Which IC50 does the source give for `COc1c([C@H]2[C@H](C(=O)Nc3ccnc(C(=O)N4CC5CC(C4)O5)c3)O[C@@](C)(C(F)(F)F)[C@H]2C)ccc(F)c1F` [Compound 218, (2R,3S,4S,5R)-N-(2-(6-oxa-3-azabicyclo[3.1.1]heptane-3-carbonyl)pyridin-4-yl)-3-(3,4-difluoro-2-methoxyphenyl)-4,5-dimethyl-5-(trifluoromethyl)tetrahydrofuran-2-carboxamide] here?
**A.** The IC50 was < 0.01 µM.

**Q.** How did the IC50 turn out when `COc1c([C@H]2[C@H](C(=O)Nc3ccnc(C(=O)N4CC[C@H](O)C4)c3)O[C@@](C)(C(F)(F)F)[C@H]2C)ccc(F)c1F` [Compound 219, (2R,3S,4S,5R)-3-(3,4-difluoro-2-methoxyphenyl)-N-(2-((S)-3-hydroxypyrrolidine-1-carbonyl)pyridin-4-yl)-4,5-dimethyl-5-(trifluoromethyl)tetrahydrofuran-2-carboxamide] was run?
**A.** Its IC50 is < 0.01 µM.

**Q.** For `COc1c([C@H]2[C@H](C(=O)Nc3ccnc(C(=O)N4CC[C@@H](O)C4)c3)O[C@@](C)(C(F)(F)F)[C@H]2C)ccc(F)c1F` [Compound 220, (2R,3S,4S,5R)-3-(3,4-difluoro-2-methoxyphenyl)-N-(2-((R)-3-hydroxypyrrolidine-1-carbonyl)pyridin-4-yl)-4,5-dimethyl-5-(trifluoromethyl)tetrahydrofuran-2-carboxamide], which IC50 is on record?
**A.** The IC50 was < 0.01 µM.

**Q.** For `COc1c([C@H]2[C@H](C(=O)Nc3ccnc(C(=O)NCCO)c3)O[C@@](C)(C(F)(F)F)[C@H]2C)ccc(F)c1F` [Compound 221, 4-((2R,3S,4S,5R)-3-(3,4-difluoro-2-methoxyphenyl)-4,5-dimethyl-5-(trifluoromethyl)tetrahydrofuran-2-carboxamido)-N-(2-hydroxyethyl)picolinamide], which IC50 is on record?
**A.** The IC50 was < 0.01 µM.

**Q.** With `COc1c([C@H]2[C@H](C(=O)Nc3ccnc(C(=O)N4CCNCC4)c3)O[C@@](C)(C(F)(F)F)[C@H]2C)ccc(F)c1F` [Compound 224, (2R,3S,4S,5R)-3-(3,4-difluoro-2-methoxyphenyl)-4,5-dimethyl-N-(2-(piperazine-1-carbonyl)pyridin-4-yl)-5-(trifluoromethyl)tetrahydrofuran-2-carboxamide] as the molecule, how does the IC50 read?
**A.** The IC50 was < 0.01 µM.

**Q.** For `COc1c([C@H]2[C@H](C(=O)Nc3ccnc(C(=O)N4CCC45CNC5)c3)O[C@@](C)(C(F)(F)F)[C@H]2C)ccc(F)c1F` [Compound 225, (2R,3S,4S,5R)-N-(2-(1,6-diazaspiro[3.3]heptane-1-carbonyl)pyridin-4-yl)-3-(3,4-difluoro-2-methoxyphenyl)-4,5-dimethyl-5-(trifluoromethyl)tetrahydrofuran-2-carboxamide], which IC50 is on record?
**A.** Its IC50 is 0.01 to 0.1 µM.
